Data from patent US20190224341A1, “RENAL CLEARABLE ORGANIC NANOCARRIERS” (The General Hospital Corporation, priority 2016, published 2019).

Test: In vivo biodistribution and pharmacokinetics in CD-1 mice
Conditions: i.v. 10 nmol
Experimental: Six weeks old CD-1 mice (male; 25-30 g) were purchased from Charles River Laboratories (Wilmington, Mass.). Mice were maintained under anesthesia by intraperitoneal injection with 100 mg/kg ketamine and 10 mg/kg xylazine (Webster Veterinary, Fort Devens, MA) for the entire duration of the experiment. The end of the tail was cut to enable blood extraction. Before injection, blood was then sampled in heparinized capillary tubes (Fisher Scientific, Pittsburgh, Pa.) as a reference and collected blood was stored in an ice box to prevent clotting. […] Mice were imaged using the in-house built real-time intraoperative MR imaging system. A 760 nm excitation laser source (4 mW/cm) was used with white light (400-650 nm; 40,000 lux). Color and MR fluorescence images were acquired simultaneously with customized software at rates of up to 15 Hz over a field of view with 15 cm in diameter. After 4 h post-injection, mice were sacrificed to image organs and collected urine from the bladder. At least 3 mice were analyzed for each sample.
The collected blood samples were centrifuged for 20 min at 3000 rpm in order to separate serum and blood plasma, and supernatants were then filled into capillary microtubes. Fluorescence intensities of the microtubes were measured using the in-house built MR imaging system. […]

Signal-to-background ratio (SBR) of each organ against muscle (4 h, resected organs): highest SBR in the kidneys
SMILES: CC1(C)C(/C=C/C2=C(c3ccc(CCC(=O)O)cc3)C(=C/C=C3/N(CCC[N+](C)(C)C)c4ccc(S(=O)(=O)O)cc4C3(C)C)/CCC2)=[N+](CCC[N+](C)(C)C)c2ccc(S(=O)(=O)O)cc21 [ZW800-1C]
Biodistribution by NIR fluorescence imaging (4 h post-injection): excretes to the bladder 4 h after injection
